Measurements as given in BindingDB's records for doi:10.1021/jm00089a010 (Abbott Laboratories, 1992).
Where a SMILES comes first, the peptide text is derived from it. The star is where a group is joined. Propanoyl(3-(4-F-phenyl)) = O=C(CCc1ccc(F)cc1)*; Propanoyl(3-(4-Cl-Ph)) = O=C(CCc1ccc(Cl)cc1)*; X6 = O=C(/C=C\c1ccc([N+](=O)[O-])cc1)*; X15 = O=C(/C=C\c1ccc(C(F)(F)F)cc1)*; X22 = O=C(CCc1cccc(OS(=O)(=O)O)c1)*; Hydrocinnamoyl = O=C(CCc1ccccc1)*; X17 = COc1ccc(/C=C\C(=O)*)c(OC)c1; X10 = O=C(/C=C\c1ccc(Cl)cc1Cl)*; X31 = COc1ccc(/C=C\C(=O)*)cc1OC; X7 = CN(C)c1ccc(/C=C\C(=O)*)cc1; X11 = O=C(/C=C\c1ccc(O)cc1)*; X16 = O=C(/C=C\c1ccccc1O)*; X27 = O=C(Cc1ccc(O)cc1)*; X5 = O=C(CCc1cccc(O)c1)*; Boc = CC(C)(C)OC(=O)*

target: Gastrin/cholecystokinin type B receptor (Cavia porcellus); assay: Inhibition of specific binding of [125I]BH-CCK-8 in guinea pig cortex

SMILES	IC50 [µM]
CC(C)(C)OC(=O)N[C@@H](Cc1c[nH]c2ccccc12)C(=O)N[C@@H](CCCCNC(=O)CCc1ccccc1)C(=O)N[C@@H](CC(=O)O)C(=O)N[C@@H](Cc1ccccc1)C(N)=O [3-[2-[2-tert-Butoxycarbonylamino-3-(1H-indol-3-yl)-propionylamino]-6-(3-phenyl-propionylamino)-hexanoylamino]-N-(1-carbamoyl-2-phenyl-ethyl)-succinamic acid.2AcOH] (Boc-WK(Hydrocinnamoyl)DF-NH2)	5.9
CC(C)(C)OC(=O)N[C@@H](Cc1c[nH]c2ccccc12)C(=O)N[C@@H](CCCCNC(=O)Cc1ccc(O)cc1)C(=O)N[C@@H](CC(=O)O)C(=O)N[C@@H](Cc1ccccc1)C(N)=O [3-{2-[2-tert-Butoxycarbonylamino-3-(1H-indol-3-yl)-propionylamino]-6-[2-(4-hydroxy-phenyl)-acetylamino]-hexanoylamino}-N-(1-carbamoyl-2-phenyl-ethyl)-succinamic acid; hydrate] (Boc-WK(X27)DF-NH2)	0.48
CC(C)(C)OC(=O)N[C@@H](Cc1c[nH]c2ccccc12)C(=O)N[C@@H](CCCCNC(=O)/C=C\c1ccc(Cl)cc1Cl)C(=O)N[C@@H](CC(=O)O)C(=O)N[C@@H](Cc1ccccc1)C(N)=O [3-{2-[2-tert-Butoxycarbonylamino-3-(1H-indol-3-yl)-propionylamino]-6-[3-(2,4-dichloro-phenyl)-acryloylamino]-hexanoylamino}-N-(1-carbamoyl-2-phenyl-ethyl)-succinamic acid; hydrate] (Boc-WK(X10)DF-NH2)	5
COc1ccc(/C=C\C(=O)NCCCC[C@H](NC(=O)[C@H](Cc2c[nH]c3ccccc23)NC(=O)OC(C)(C)C)C(=O)N[C@@H](CC(=O)O)C(=O)N[C@@H](Cc2ccccc2)C(N)=O)c(OC)c1 [3-{2-[2-tert-Butoxycarbonylamino-3-(1H-indol-3-yl)-propionylamino]-6-[3-(2,4-dimethoxy-phenyl)-acryloylamino]-hexanoylamino}-N-(1-carbamoyl-2-phenyl-ethyl)-succinamic acid; hydrate] (Boc-WK(X17)DF-NH2)	3
CC(C)(C)OC(=O)N[C@@H](Cc1c[nH]c2ccccc12)C(=O)N[C@@H](CCCCNC(=O)/C=C\c1ccccc1O)C(=O)N[C@@H](CC(=O)O)C(=O)N[C@@H](Cc1ccccc1)C(N)=O [3-{2-[2-tert-Butoxycarbonylamino-3-(1H-indol-3-yl)-propionylamino]-6-[3-(2-hydroxy-phenyl)-acryloylamino]-hexanoylamino}-N-(1-carbamoyl-2-phenyl-ethyl)-succinamic acid; hydrate] (Boc-WK(X16)DF-NH2)	0.21
COc1ccc(/C=C\C(=O)NCCCC[C@H](NC(=O)[C@H](Cc2c[nH]c3ccccc23)NC(=O)OC(C)(C)C)C(=O)N[C@@H](CC(=O)O)C(=O)N[C@@H](Cc2ccccc2)C(N)=O)cc1OC [3-{2-[2-tert-Butoxycarbonylamino-3-(1H-indol-3-yl)-propionylamino]-6-[3-(3,4-dimethoxy-phenyl)-acryloylamino]-hexanoylamino}-N-(1-carbamoyl-2-phenyl-ethyl)-succinamic acid; hydrate] (Boc-WK(X31)DF-NH2)	4
CC(C)(C)OC(=O)N[C@@H](Cc1c[nH]c2ccccc12)C(=O)N[C@@H](CCCCNC(=O)CCc1cccc(O)c1)C(=O)N[C@@H](CC(=O)O)C(=O)N[C@@H](Cc1ccccc1)C(N)=O [3-{2-[2-tert-Butoxycarbonylamino-3-(1H-indol-3-yl)-propionylamino]-6-[3-(3-hydroxy-phenyl)-propionylamino]-hexanoylamino}-N-(1-carbamoyl-2-phenyl-ethyl)-succinamic acid; hydarte] (Boc-WK(X5)DF-NH2)	3
CC(C)(C)OC(=O)N[C@@H](Cc1c[nH]c2ccccc12)C(=O)N[C@@H](CCCCNC(=O)CCc1cccc(OS(=O)(=O)O)c1)C(=O)N[C@@H](CC(=O)O)C(=O)N[C@@H](Cc1ccccc1)C(N)=O [3-{2-[2-tert-Butoxycarbonylamino-3-(1H-indol-3-yl)-propionylamino]-6-[3-(3-sulfooxy-phenyl)-propionylamino]-hexanoylamino}-N-(1-carbamoyl-2-phenyl-ethyl)-succinamic acid; NH40H.hydrate] (Boc-WK(X22)DF-NH2)	10
CC(C)(C)OC(=O)N[C@@H](Cc1c[nH]c2ccccc12)C(=O)N[C@@H](CCCCNC(=O)CCc1ccc(Cl)cc1)C(=O)N[C@@H](CC(=O)O)C(=O)N[C@@H](Cc1ccccc1)C(N)=O [3-{2-[2-tert-Butoxycarbonylamino-3-(1H-indol-3-yl)-propionylamino]-6-[3-(4-chloro-phenyl)-propionylamino]-hexanoylamino}-N-(1-carbamoyl-2-phenyl-ethyl)-succinamic acid; hydrate] (Boc-WK(Propanoyl(3-(4-Cl-Ph)))DF-NH2)	7
CN(C)c1ccc(/C=C\C(=O)NCCCC[C@H](NC(=O)[C@H](Cc2c[nH]c3ccccc23)NC(=O)OC(C)(C)C)C(=O)N[C@@H](CC(=O)O)C(=O)N[C@@H](Cc2ccccc2)C(N)=O)cc1 [3-{2-[2-tert-Butoxycarbonylamino-3-(1H-indol-3-yl)-propionylamino]-6-[3-(4-dimethylamino-phenyl)-acryloylamino]-hexanoylamino}-N-(1-carbamoyl-2-phenyl-ethyl)-succinamic acid; hydrate] (Boc-WK(X7)DF-NH2)	2.1
CC(C)(C)OC(=O)N[C@@H](Cc1c[nH]c2ccccc12)C(=O)N[C@@H](CCCCNC(=O)CCc1ccc(F)cc1)C(=O)N[C@@H](CC(=O)O)C(=O)N[C@@H](Cc1ccccc1)C(N)=O [3-{2-[2-tert-Butoxycarbonylamino-3-(1H-indol-3-yl)-propionylamino]-6-[3-(4-fluoro-phenyl)-propionylamino]-hexanoylamino}-N-(1-carbamoyl-2-phenyl-ethyl)-succinamic acid; hydrate] (Boc-WK(Propanoyl(3-(4-F-phenyl)))DF-NH2)	9.9
CC(C)(C)OC(=O)N[C@@H](Cc1c[nH]c2ccccc12)C(=O)N[C@@H](CCCCNC(=O)/C=C\c1ccc(O)cc1)C(=O)N[C@@H](CC(=O)O)C(=O)N[C@@H](Cc1ccccc1)C(N)=O [3-{2-[2-tert-Butoxycarbonylamino-3-(1H-indol-3-yl)-propionylamino]-6-[3-(4-hydroxy-phenyl)-acryloylamino]-hexanoylamino}-N-(1-carbamoyl-2-phenyl-ethyl)-succinamic acid] (Boc-WK(X11)DF-NH2)	0.73
CC(C)(C)OC(=O)N[C@@H](Cc1c[nH]c2ccccc12)C(=O)N[C@@H](CCCCNC(=O)/C=C\c1ccc([N+](=O)[O-])cc1)C(=O)N[C@@H](CC(=O)O)C(=O)N[C@@H](Cc1ccccc1)C(N)=O [3-{2-[2-tert-Butoxycarbonylamino-3-(1H-indol-3-yl)-propionylamino]-6-[3-(4-nitro-phenyl)-acryloylamino]-hexanoylamino}-N-(1-carbamoyl-2-phenyl-ethyl)-succinamic acid; hydrate] (Boc-WK(X6)DF-NH2)	4.4
CC(C)(C)OC(=O)N[C@@H](Cc1c[nH]c2ccccc12)C(=O)N[C@@H](CCCCNC(=O)/C=C\c1ccc(C(F)(F)F)cc1)C(=O)N[C@@H](CC(=O)O)C(=O)N[C@@H](Cc1ccccc1)C(N)=O [3-{2-[2-tert-Butoxycarbonylamino-3-(1H-indol-3-yl)-propionylamino]-6-[3-(4-trifluoromethyl-phenyl)-acryloylamino]-hexanoylamino}-N-(1-carbamoyl-2-phenyl-ethyl)-succinamic acid; hydrate] (Boc-WK(X15)DF-NH2)	5.3
